Measurements as given in ChEMBL document CHEMBL3421588, “Discovery of novel indirubin-3'-monoxime derivatives as potent inhibitors against CDK2 and CDK9” (Bioorg Med Chem Lett, 2015).
Calls of active or inactive are those of the source. The rule behind the calls is not given here.

Columns and labels:
[1] = target: CDK9/cyclin T1 (Homo sapiens) (UniProt O60563+P50750); assay: Inhibition of against CDK9/cyclinT1 (unknown origin) at 10 uM using Ulight-CFFKNIVTPRTPPPSQGK-amide substrate and ATP incubated for 90 mins by fluorescence based assay; type: protein-complex assay
[2] = target: Cyclin-dependent kinase 2/cyclin E1 (Homo sapiens, UniProt P24941); assay: Inhibition of against CDK2/cyclinE1 (unknown origin) using Ulight-CFFKNIVTPRTPPPSQGK-amide substrate and ATP incubated for 15 mins by fluorescence based assay; type: protein-complex assay
CDK9/cyclin T1 = CDK9/cyclin T1 (Homo sapiens, UniProt P50750); assay: Inhibition of against CDK9/cyclinT1 (unknown origin) using Ulight-CFFKNIVTPRTPPPSQGK-amide substrate and ATP incubated for 90 mins by fluorescence based assay; type: protein-complex assay
CDK9/cyclin T1, sequence (O60563 whole entry): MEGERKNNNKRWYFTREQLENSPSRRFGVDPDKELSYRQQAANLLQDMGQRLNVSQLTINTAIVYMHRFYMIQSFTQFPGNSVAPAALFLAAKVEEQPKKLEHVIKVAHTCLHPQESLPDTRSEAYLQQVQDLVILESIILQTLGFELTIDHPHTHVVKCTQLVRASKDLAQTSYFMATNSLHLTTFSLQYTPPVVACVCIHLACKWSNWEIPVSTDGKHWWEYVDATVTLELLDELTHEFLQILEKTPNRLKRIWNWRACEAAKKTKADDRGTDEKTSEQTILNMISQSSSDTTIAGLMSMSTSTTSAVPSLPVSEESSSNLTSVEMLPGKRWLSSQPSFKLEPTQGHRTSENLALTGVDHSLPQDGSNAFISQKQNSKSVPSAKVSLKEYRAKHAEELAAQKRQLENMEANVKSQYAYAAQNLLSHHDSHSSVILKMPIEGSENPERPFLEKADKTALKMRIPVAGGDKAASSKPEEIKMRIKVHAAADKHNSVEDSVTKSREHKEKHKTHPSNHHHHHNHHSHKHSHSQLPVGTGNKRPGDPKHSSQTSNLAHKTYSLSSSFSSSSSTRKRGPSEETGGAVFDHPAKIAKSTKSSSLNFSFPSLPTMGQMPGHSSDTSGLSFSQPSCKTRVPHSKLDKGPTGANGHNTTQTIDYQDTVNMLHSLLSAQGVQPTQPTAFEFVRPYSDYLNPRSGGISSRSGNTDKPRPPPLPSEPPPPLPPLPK
CDK9/cyclin T1, sequence (P50750 whole entry): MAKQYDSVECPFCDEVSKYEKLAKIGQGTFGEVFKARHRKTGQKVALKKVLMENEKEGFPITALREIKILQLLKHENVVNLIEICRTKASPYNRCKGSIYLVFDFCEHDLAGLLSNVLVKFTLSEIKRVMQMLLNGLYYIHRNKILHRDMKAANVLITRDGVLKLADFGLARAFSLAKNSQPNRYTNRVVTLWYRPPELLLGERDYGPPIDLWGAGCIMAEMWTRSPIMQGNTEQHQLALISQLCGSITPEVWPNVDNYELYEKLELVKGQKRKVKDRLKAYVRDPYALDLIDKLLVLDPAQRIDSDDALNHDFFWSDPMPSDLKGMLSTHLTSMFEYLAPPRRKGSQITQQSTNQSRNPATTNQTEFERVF

[3] = Cytotoxicity against human HCT116 cells assessed as inhibition of cell growth by MTT assay; type: functional, cell-based, HCT-116
HepG2 = assay: Cytotoxicity against human HepG2 cells assessed as inhibition of cell growth by MTT assay; type: functional, cell-based
[4] = Cytotoxicity against human BGC823 cells assessed as inhibition of cell growth by MTT assay; type: functional, cell-based, BGC-823
[5] = Cytotoxicity against human […] cells assessed as inhibition of cell growth by MTT assay; type: functional, cell-based
A2780 = assay: Cytotoxicity against human A2780 cells assessed as inhibition of cell growth by MTT assay; type: functional, cell-based
BGC-823 = assay: Cytotoxicity against human BGC823 cells assessed as inhibition of cell growth at 10 uM by MTT assay; type: functional, cell-based
Homo sapiens = species: Homo sapiens; assay: Selectivity index, ratio of IC50 for CDK2/cyclinE1 (unknown origin) to IC50 for CDK9/cyclinT1 (unknown origin)
[6] = Homo sapiens, HCT-116, read-out: IC50
[7] = Homo sapiens, HepG2, read-out: IC50
[8] = Homo sapiens, BGC-823, read-out: IC50
[9] = Homo sapiens, A2780, read-out: IC50

Row | SMILES | inhibition [1] [%] | IC50 [2] [nM] | IC50 (CDK9/cyclin T1) [nM] | IC50 ([3]; hct-116) | IC50 (HepG2; hepg2) | IC50 ([4]; bgc-823) | IC50 [5] | IC50 (A2780; a2780) | further results
1 | COc1ccc2c(c1)/C(=C1/Nc3cc(F)c(F)cc3/C1=N\O)C(=O)N2 | 81 | 1100 | 1900 |  |  |  |  |  | 
2 | COc1ccc2c(c1)/C(=C1/Nc3cc(F)c(F)cc3/C1=N\OCCO)C(=O)N2 | 84 | 400 | 300 |  |  |  |  |  | 
3 | O=C1Nc2ccc(F)cc2/C1=C1/Nc2ccc(OC(F)(F)F)cc2/C1=N\O | < 30 |  |  | Not Active | Not Active | Not Active | Not Active | Not Active | 
4 | O=Nc1c(-c2c(O)[nH]c3ccccc23)[nH]c2ccccc12 [INDIRUBIN-3-MONOXIME] | 70 | 700 | 2400 |  |  |  |  |  | 
5 | O=C1Nc2c(Cl)cc(Cl)cc2/C1=C1/Nc2cc(F)c(F)cc2/C1=N\O | < 30 |  |  | Not Active | Not Active | Not Active | Not Active | Not Active | 
6 | Cc1ccc2c(c1)/C(=C1/Nc3cc(F)c(F)cc3/C1=N\O)C(=O)N2 | 65 |  |  |  |  |  |  |  | 
7 | O=C1Nc2ccc([N+](=O)[O-])cc2/C1=C1/Nc2ccc(OC(F)(F)F)cc2/C1=N\O | < 30 |  |  | Not Active | Not Active | Not Active | Not Active | Not Active | 
8 | CO/N=C1/C(=C2/C(=O)Nc3ccc([N+](=O)[O-])cc32)Nc2cc(F)c(F)cc21 | < 30 |  |  | Not Active | Not Active | Not Active | Not Active | Not Active | 
9 | CN1C(=O)/C(=C2\Nc3cc(F)c(F)cc3\C2=N/O)c2ccccc21 | 52 |  |  |  |  |  |  |  | IC50 [3, 6]: 2220 nM; IC50 (HepG2; [7]): 2540 nM; IC50 [4, 8]: 9200 nM; IC50 ([5]; Homo sapiens, read-out: IC50): 2770 nM; IC50 (A2780; [9]): 4030 nM
10 | O=C1Nc2cc(Cl)ccc2/C1=C1/Nc2cc(F)c(F)cc2/C1=N\O | 59 |  |  |  |  |  |  |  | 
11 | O=C1Nc2ccc([N+](=O)[O-])cc2/C1=C1/Nc2cc(F)c(F)cc2/C1=N\O | 89 | 1000 | 700 |  |  |  |  |  | IC50 [3, 6]: 2160 nM; IC50 (HepG2; [7]): 2450 nM; IC50 [4, 8]: 6140 nM; IC50 ([5]; Homo sapiens, read-out: IC50): 2210 nM; IC50 (A2780; [9]): 2220 nM
12 | COc1ccc2c(c1)/C(=C1/Nc3ccc(OC(F)(F)F)cc3/C1=N\O)C(=O)N2 | < 30 |  |  | Not Active | Not Active | Not Active | Not Active | Not Active | 
13 | CO/N=C1/C(=C2/C(=O)Nc3ccc(F)cc32)Nc2cc(F)c(F)cc21 | < 30 |  |  | Not Active | Not Active | Not Active | Not Active | Not Active | 

More lines, main results first:

Row | inhibition [1] [%] | IC50 [2] [nM] | IC50 (CDK9/cyclin T1) [nM] | SMILES | IC50 ([3]; hct-116) | IC50 (HepG2; hepg2) | IC50 ([4]; bgc-823) | IC50 [5] | IC50 (A2780; a2780) | further results
14 | 74 | 4100 | 5600 | O=C1Nc2ccc(OC(F)(F)F)cc2/C1=C1/Nc2cc(F)c(F)cc2/C1=N\O |  |  |  |  |  | 
15 | 67 |  |  | O=C1Nc2ccccc2/C1=C1/Nc2cc(F)c(F)cc2/C1=N\O |  |  |  |  |  | IC50 [3, 6]: 2320 nM; IC50 (HepG2; [7]): 1910 nM; IC50 [4, 8]: 6450 nM; IC50 ([5]; Homo sapiens, read-out: IC50): 3040 nM; IC50 (A2780; [9]): 2500 nM
16 | < 30 |  |  | O=C1Nc2c(Cl)cccc2/C1=C1/Nc2cc(F)c(F)cc2/C1=N\O | Not Active | Not Active | Not Active | Not Active | Not Active | 
17 | < 30 |  |  | O=C1Nc2c(cccc2C(F)(F)F)/C1=C1/Nc2cc(F)c(F)cc2/C1=N\O | Not Active | Not Active | Not Active | Not Active | Not Active | 
18 | 60 |  |  | Nc1ccc2c(c1)/C(=C1/Nc3cc(F)c(F)cc3/C1=N\O)C(=O)N2 |  |  |  |  |  | IC50 [3, 6]: 5820 nM; IC50 (HepG2; [7]): 5620 nM; IC50 ([5]; Homo sapiens, read-out: IC50): 2540 nM; IC50 (A2780; [9]): 2260 nM; growth inhibition (GI) (BGC-823): inactive
19 | 85 | 2700 | 1700 | O=C1Nc2ccc(F)cc2/C1=C1/Nc2cc(F)c(F)cc2/C1=N\O |  |  |  |  |  | IC50 [3, 6]: 940 nM; IC50 (HepG2; [7]): 2680 nM; IC50 [4, 8]: 9650 nM; IC50 ([5]; Homo sapiens, read-out: IC50): 2720 nM; IC50 (A2780; [9]): 2370 nM
20 | 86 | 6400 | 400 | O=C1Nc2ccc(Cl)cc2/C1=C1/Nc2cc(F)c(F)cc2/C1=N\O |  |  |  |  |  | Ratio IC50 (Homo sapiens): 15
